Experimental data as given in US11999727B2 (Tango Therapeutics, Inc., priority 2020, dated 2024).

Tests used:
PRMT5 [1] = target: T1, PRMT5 (Homo sapiens, UniProt O14744); experiment: PRMT5 biochemical IC50 assay with SAM as cofactor; conditions: PRMT5, SAM as cofactor; read-out: SAM IC50
T1 construct: purchased Viva (custom protein)

PRMT5 [2] = target: T1, PRMT5; experiment: PRMT5 biochemical IC50 assay with no cofactor; conditions: PRMT5, no cofactor
Text: Table 1 indicates IC50 values (μM) against PRMT5 for exemplary compounds in the presence of SAM as cofactor, with no cofactor, and with MTA as cofactor, respectively (columns 4-6). […] Ki values can be calculated from the IC50 values as described in the Examples section. As detailed in the Examples section, for the assay performed in the presence of SAM, IC50=Ki×1.5 (Ki=IC50/1.5).

PRMT5 [3] = target: T1, PRMT5; experiment: PRMT5 biochemical IC50 assay with MTA as cofactor; conditions: PRMT5, MTA as cofactor; read-out: MTA IC50
[4] = tested on: HAP1 MTAP-intact cell line; experiment: SDMA in-cell western assay, HAP1 MTAP-intact; assay type: cell-based; conditions: Homo sapiens, HAP1, SDMA in-cell western, HAP1 MTAP-intact; read-out: MTAP HAP1 intact IC50
Procedure, shortened: (§1)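 MTAP-null vs endogenous-MTAP HAP1 isogenic cells; in-cell western SDMA readout; IC50 per line.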

[5] = tested on: HAP1 MTAP-deleted cell line; experiment: SDMA in-cell western assay, HAP1 MTAP-deleted; assay type: cell-based; conditions: for IC50: Homo sapiens, HAP1, SDMA in-cell western, HAP1 MTAP-deleted; for MTAP intact/deleted ratio: SDMA in-cell western
Procedure, shortened: as §1

[6] = tested on: HAP1 MTAP-deleted cell line; experiment: Viability assay, MTAP-deleted cell line; assay type: cell-based; conditions: Homo sapiens, read-out: HAP1 MTAP deleted viability
Text: Table 1 additionally indicates IC50 values in a viability assay for the MTAP-deleted cell line (column 10), indicating the effect of treatment with compound on cell survival.

[7] = read-out: No Cofactor/ rel IC50
[8] = read-out: HAP 1 MTAP deleted IC50
[9] = IC50 ratio HAP1 MTAP-intact / HAP1 MTAP-deleted
[10] = HAP1, viability IC50, MTAP-deleted cell line
[11] = read-out: HAP1 MTAP deleted IC50
[12] = HAP1, viability assay, MTAP-deleted cell line
[13] = HAP1, viability assay, HAP1 MTAP-deleted

T1 sequence (O14744 whole entry): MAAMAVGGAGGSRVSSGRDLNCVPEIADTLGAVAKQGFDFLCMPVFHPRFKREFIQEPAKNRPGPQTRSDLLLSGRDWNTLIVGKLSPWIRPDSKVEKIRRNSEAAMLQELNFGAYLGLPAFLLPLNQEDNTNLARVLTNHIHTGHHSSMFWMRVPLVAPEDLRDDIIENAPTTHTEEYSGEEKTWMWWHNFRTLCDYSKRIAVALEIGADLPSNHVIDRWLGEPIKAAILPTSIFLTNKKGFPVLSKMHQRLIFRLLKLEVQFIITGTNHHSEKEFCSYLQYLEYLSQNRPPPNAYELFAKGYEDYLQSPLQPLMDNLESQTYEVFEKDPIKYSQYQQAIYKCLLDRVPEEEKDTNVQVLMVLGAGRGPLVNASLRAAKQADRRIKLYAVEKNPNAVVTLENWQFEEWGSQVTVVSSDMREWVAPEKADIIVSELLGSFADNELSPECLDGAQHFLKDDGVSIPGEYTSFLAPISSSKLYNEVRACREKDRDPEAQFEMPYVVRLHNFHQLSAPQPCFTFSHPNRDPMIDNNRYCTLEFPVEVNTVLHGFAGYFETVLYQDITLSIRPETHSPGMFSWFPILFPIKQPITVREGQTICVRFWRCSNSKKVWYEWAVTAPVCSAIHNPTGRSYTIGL
T1 sequence (Q9BQA1 whole entry partner): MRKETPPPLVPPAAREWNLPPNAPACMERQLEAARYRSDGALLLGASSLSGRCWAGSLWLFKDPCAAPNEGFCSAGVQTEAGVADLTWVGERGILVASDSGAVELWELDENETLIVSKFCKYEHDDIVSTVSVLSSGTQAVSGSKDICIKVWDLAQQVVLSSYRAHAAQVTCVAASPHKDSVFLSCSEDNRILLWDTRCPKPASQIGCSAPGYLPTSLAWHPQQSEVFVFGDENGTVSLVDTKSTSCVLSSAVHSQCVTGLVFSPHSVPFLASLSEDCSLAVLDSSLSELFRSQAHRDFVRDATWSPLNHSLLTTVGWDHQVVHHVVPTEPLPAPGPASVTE

SMILES | IC50 (PRMT5 [1]) | IC50 (PRMT5 [2]; [7]) | IC50 (PRMT5 [3]) | IC50 [4] | IC50 [5, 8] | IC50 (PRMT5 [2]; read-out: No Cofactor/rel IC50) | IC50 [5, 11] | MTAP intact/deleted ratio [5, 9] | IC50 ([6]; HAP1, viability, HAP1 MTAP-deleted cell line) | IC50 [6, 10] | IC50 [6, 12] | IC50 [6, 13] | MTAP intact/deleted ratio ([5]; IC50 ratio HAP1 MTAP-intact vs HAP1 MTAP-deleted)
CCc1cc(NC(=O)C(=O)N2C[C@@H](C)CC[C@@H]2c2cccc(OCC3CCN(C)CC3)c2)cnc1N [Compound 1348, N-(6-amino-5-ethylpyridin-3-yl)-2-((2R,5S)-5-methyl-2-(3-((1-methylpiperidin-4-yl)methoxy)phenyl)piperidin-1-yl)-2-oxoacetamide] | < 50 nM | < 50 nM | < 50 nM | < 100 nM | < 100 nM |  |  | A (an IC50 ratio greater than or equal to 10 fold) | < 1000 nM |  |  |  | 
C[C@@H]1CC[C@@H](c2cccs2)N(C(=O)C(=O)Nc2cncc(C(N)=O)c2)C1 (single isomer, unassigned) [Compound 201] | > 500 nM |  | > 500 nM | > 1000 nM |  | > 500 nM | > 1000 nM | C (an IC50 ratio of less than 3 fold) |  |  | > 10000 nM |  | 
C[C@@H]1CN(C(=O)C(=O)Nc2cncc(C(N)=O)c2)[C@@H](c2ccccc2)C[C@@H]1O (racemic) [Compound 470, rac-5-[[2-[(2R,4S,5R)-4-hydroxy-5-methyl-2-phenyl-1-piperidyl]-2-oxo-acetyl]amino]pyridine-3-carboxamide] | 50 to 500 nM |  | 50 to 500 nM | > 1000 nM |  | 50 to 500 nM | 100 to 1000 nM | A (an IC50 ratio greater than or equal to 10 fold) |  |  | > 10000 nM |  | 
Cc1cc(NC(=O)C(=O)N2C[C@H](C)CC[C@H]2c2cccc(S(C)(=O)=O)c2)cnc1N (single isomer, unassigned) [Compound 895] | 50 to 500 nM |  | < 50 nM | 100 to 1000 nM | < 100 nM | 50 to 500 nM |  | B (an IC50 ratio greater than or equal to 3 fold but lower than 10 fold) |  |  | 1000 to 10000 nM |  | 
Cc1ccc([C@@H]2CC[C@@H](C)CN2C(=O)C(=O)Nc2cnc(N)c(C)c2)cc1O (racemic) [Compound 580, N-(6-amino-5-methylpyridin-3-yl)-2-(2-(3-hydroxy-4-methylphenyl)-5-methylpiperidin-1-yl)-2-oxoacetamide] | 50 to 500 nM |  | 50 to 500 nM | 100 to 1000 nM | < 100 nM | 50 to 500 nM |  | A (an IC50 ratio greater than or equal to 10 fold) |  | < 1000 nM |  |  | 
CO[C@@H]1C[C@@H](c2ccc3scnc3c2)N(C(=O)C(=O)Nc2cncc(C(N)=O)c2)C[C@@H]1C (single isomer, unassigned) [Compound 1161] | 50 to 500 nM |  | < 50 nM | 100 to 1000 nM |  | < 50 nM | < 100 nM |  |  |  | < 1000 nM |  | A (an IC50 ratio greater than or equal to 10 fold)
COc1ncc(NC(=O)C(=O)N2C[C@H](C)CC[C@H]2c2ccc3[nH]c(C)nc3c2)cc1C(N)=O (single isomer, unassigned) [Compound 917] | 50 to 500 nM |  | < 50 nM | > 1000 nM | < 100 nM | < 50 nM |  | A (an IC50 ratio greater than or equal to 10 fold) |  |  | 1000 to 10000 nM |  | 
Cc1cc(NC(=O)C(=O)N2C[C@H](C)CC[C@H]2c2ccc3c(c2)CCCN3)cnc1N (single isomer, unassigned) [Compound 504] | 50 to 500 nM |  | < 50 nM | 100 to 1000 nM |  | < 50 nM | < 100 nM | A (an IC50 ratio greater than or equal to 10 fold) |  |  | < 1000 nM |  | 

The next lines start with results.

IC50 (PRMT5 [1]) | IC50 (PRMT5 [2]; [7]) | IC50 (PRMT5 [3]) | IC50 [4] | IC50 [5, 8] | IC50 (PRMT5 [2]; read-out: No Cofactor/rel IC50) | IC50 [5, 11] | SMILES | MTAP intact/deleted ratio [5, 9] | IC50 ([6]; HAP1, viability, HAP1 MTAP-deleted cell line) | IC50 [6, 10] | IC50 [6, 12] | IC50 [6, 13] | MTAP intact/deleted ratio ([5]; IC50 ratio HAP1 MTAP-intact vs HAP1 MTAP-deleted)
> 500 nM |  | 50 to 500 nM | > 1000 nM | > 1000 nM | > 500 nM |  | Cc1cc(NC(=O)C(=O)N2C[C@H](C)CC[C@H]2c2ccc(-c3ccn[nH]3)cc2)cnc1N (single isomer, unassigned) [Compound 675] | B (an IC50 ratio greater than or equal to 3 fold but lower than 10 fold) |  | > 10000 nM |  |  | 
50 to 500 nM |  | < 50 nM | 100 to 1000 nM |  | 50 to 500 nM | < 100 nM | CNC(=O)c1ccc([C@H]2CC[C@H](C)CN2C(=O)C(=O)Nc2cnc(OC)c(C(N)=O)c2)s1 (single isomer, unassigned) [Compound 833] | A (an IC50 ratio greater than or equal to 10 fold) |  |  |  | < 1000 nM | 
> 500 nM |  | > 500 nM | > 1000 nM |  | > 500 nM | > 1000 nM | C[C@H]1CC[C@H](c2ccc(S(N)(=O)=O)cc2)N(C(=O)C(=O)Nc2cncc(C(N)=O)c2)C1 (single isomer, unassigned) [Compound 724] | C (an IC50 ratio of less than 3 fold) |  |  |  | > 10000 nM | 
50 to 500 nM |  | < 50 nM | 100 to 1000 nM |  | 50 to 500 nM | < 100 nM | Cc1cc(NC(=O)C(=O)N2C[C@@H](C)CC(F)(F)[C@@H]2c2ccc(F)cc2)cnc1N (racemic) [Compound 871, N-(6-amino-5-methyl-3-pyridyl)-2-[(2S,5S)-3,3-difluoro-2-(4-fluorophenyl)-5-methyl-1-piperidyl]-2-oxo-acetamide] | B (an IC50 ratio greater than or equal to 3 fold but lower than 10 fold) |  |  |  | 1000 to 10000 nM | 
50 to 500 nM | 50 to 500 nM | < 50 nM | > 1000 nM | < 100 nM |  |  | Cc1cc(NC(=O)C(=O)N2CCCC[C@@H]2c2cccs2)cnc1N (single isomer, unassigned) [Compound 24] | A (an IC50 ratio greater than or equal to 10 fold) |  |  | > 10000 nM |  | 
> 500 nM |  | > 500 nM | > 1000 nM |  | > 500 nM | > 1000 nM | CCOc1ncc(NC(=O)C(=O)N2C[C@H](C)CC[C@H]2c2ccccc2)cc1C(N)=O (single isomer, unassigned) [Compound 765] | C (an IC50 ratio of less than 3 fold) |  |  |  | > 10000 nM | 
50 to 500 nM |  | < 50 nM | 100 to 1000 nM |  | < 50 nM | < 100 nM | CC(=O)N1CCC(c2cccc([C@H]3CC[C@H](C)CN3C(=O)C(=O)Nc3cnc(N)c(C)c3)c2)CC1 (single isomer, unassigned) [Compound 324] | A (an IC50 ratio greater than or equal to 10 fold) |  |  | < 1000 nM |  | 
< 50 nM |  | < 50 nM | 100 to 1000 nM |  | < 50 nM | < 100 nM | Cc1cc(NC(=O)C(=O)N2C[C@H](C)C(F)(F)C[C@H]2c2ccccc2)cnc1N (single isomer, unassigned) [Compound 735] | A (an IC50 ratio greater than or equal to 10 fold) |  |  |  | < 1000 nM | 
50 to 500 nM |  | 50 to 500 nM | 100 to 1000 nM | < 100 nM | 50 to 500 nM |  | Cc1cc(NC(=O)C(=O)N2C[C@H](C)CC[C@H]2c2ccc3nn(C)cc3c2)cnc1N (racemic) [Compound 912] | A (an IC50 ratio greater than or equal to 10 fold) |  |  | < 1000 nM |  | 
